Assays:
CD38 [1] = target: T1, CD38 (Mus musculus, UniProt P56528); assay: In vivo efficacy against CD38 in aged mice, single oral dose, liver NAD+ metabolites
T1 construct: aged mice (male C57BL6/J, 22 months old) were fasted for 4 hr; from tissue; host or cells: C57BL6/J mice (aged, DIO obese or LPS-challenged); liver, spleen, plasma
T1 sequence (P56528 1-304): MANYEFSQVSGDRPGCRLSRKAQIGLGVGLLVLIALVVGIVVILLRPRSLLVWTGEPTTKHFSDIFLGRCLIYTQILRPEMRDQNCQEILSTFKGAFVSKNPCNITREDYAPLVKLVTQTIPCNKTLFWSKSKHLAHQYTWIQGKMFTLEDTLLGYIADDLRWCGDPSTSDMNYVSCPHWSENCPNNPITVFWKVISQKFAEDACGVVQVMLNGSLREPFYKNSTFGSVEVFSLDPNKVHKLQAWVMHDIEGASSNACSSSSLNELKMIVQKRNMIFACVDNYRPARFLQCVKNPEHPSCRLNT
Protocol: The in vivo efficacy of Compound 35 against the human CD38 enzyme was tested in aged mice after oral administration and determined by mass spec analysis of NAD+ metabolites levels in liver tissue. The two main CD38 substrates, NAD+ and NMN, and the 2 main byproducts of the CD38 enzymatic reaction, NAM and ADPR, were measured.
Briefly, aged mice (male C57BL6/J, 22 months old) were fasted for 4 hr and compound 35 was administered via oral gavage at a concentration of 3 mg/kg and 10 mg/kg. Mice were humanely euthanized for liver tissue harvesting at 1-, 3-, and 6-hr post-dosing. A vehicle control (DMSO:Solutol: SBE-CD, 2:5:93, v/v) was included to assess baseline NAD+ metabolites levels.
The procedure for tissue sample preparation and UPLC-MS/MS methods were adapted from Trammell et al. (2013) Compu. Struct. Biotechnol. J. […] (https://www.ncbi.nlm.nih.gov/pmc/articles/PMC3962138/). Briefly, frozen liver tissue was pulverized and resuspended in the extraction buffer (3:1 ethanol:10 mM aq. HEPES, pH 7.1). The samples were vortexed, sonicated briefly in a bath sonicator, and shaken at 55° C. for 3 min at 1,200 rpm. Samples were then centrifuged at 16,000×g for 10 min at 4° C., and the supernatant was dried by speedvac. The dried pellet was resuspended in 97% 10 mM ammonium acetate/3% acetonitrile, centrifuged at 16,000×g for 10 min at 4° C. and 2 μL was injected for LCMS analysis.
The UPLC-MS/MS analysis to measure NAD+ metabolites was performed using a Vanquish UHPLC system and a Q Exactive Orbitrap mass spectrometer with H-ESI ion source both from Thermo Scientific. UPLC separation was performed on a Hypercarb (2.1×100 mm, 5 μm particle size, Thermo) column following the method described in Trammell et al. (2013). Acquisition was carried out in positive ion, Parallel Reaction Monitoring (PRM) mode and targeted […] (t-SIM). The Thermo Xcalibur QualBrowser system software (version 4.2.47) and Freestyle (version 1.8.51.0) softwares was used for the data processing. For relative fold change, peak areas were normalized with respective internal standards, normalized to weight of the tissue sample used, and calculated as fold change relative at 0 h timepoint/vehicle group.

CD38 [2] = target: T1, CD38; assay: LPS-induced inflammation in mice, cytokines quantification in plasma; assay type: in vivo
Protocol: (§1) The in vivo efficacy of Compound 39 against the human CD38 enzyme after LPS challenge was assessed. The effects of Compound 39 (10 mg/kg and 30 mg/kg) on inflammato cytokines, inflammation markers and NAD+ levels at 4 h and 8 h points after LPS-induced inflammation in 12 weeks old male C57BL/6J mice were evaluated.
(§2) Animals were euthanized by terminal cardiac blood puncture immediately after terminal CO2, 4 h and 8 h after LPS administration. At necropsy, the tissues (Liver, Plasma, Spleen, Kidney, Lungs, Heart, Visceral Adipose Tissue, Muscle-Gastrocnemius) were collected and quick frozen in liquid nitrogen. The blood was collected in a BD Microtainer® K2EDTA Additive Tube, centrifuge at 1000 g for 10 min at 4° C. and plasma was store at −80° C.).

CD38 [3] = target: T1, CD38; assay: LPS-induced inflammation in mice, MS analysis of NAD+ metabolism in spleen and liver; assay type: in vivo
Protocol: as §1, §2

CD38 [4] = target: T1, CD38; assay: LPS-induced inflammation in mice, gene expression analysis in spleen and liver; assay type: in vivo
[5] = 4 hour post LPS challenge, 10 mg/kg
[6] = 4 hour post LPS challenge, 30 mg/kg
[7] = 8 h post LPS challenge, 10 mg/kg and 30 mg/kg
[8] = 30 mg/kg, 8 hours post LPS challenge

COc1cc(C(=O)Nc2ccnc(C(F)(F)F)c2)nc(-n2ccnc2)c1 [Compound 35, 6-(1H-imidazol-1-yl)-4-methoxy-N-(2-(trifluoromethyl)pyridin-4-yl)picolinamide]
decrease: ADPR levels in liver (CD38 [1]; single 3 mg/kg oral dose) | NAM levels in liver (CD38 [1]; single 3 mg/kg oral dose) | ADPR levels in liver (CD38 [1]; single 10 mg/kg oral dose) | NAM levels in liver (CD38 [1]; single 10 mg/kg oral dose)
increase: NAD+ levels in liver (CD38 [1]; single 3 mg/kg oral dose) | NMN levels in liver (CD38 [1]; single 3 mg/kg oral dose) | NAD+ levels in liver (CD38 [1]; single 10 mg/kg oral dose) | NMN levels in liver (CD38 [1]; single 10 mg/kg oral dose)

COCCOc1cc(C(=O)Nc2ccnc(C(F)(F)F)c2)nc(-n2ccnc2)n1 [Compound 39, 2-(1H-imidazol-1-yl)-6-(2-methoxyethoxy)-N-(2-(trifluoromethyl)pyridin-4-yl)pyrimidine-4-carboxamide]
40%: decrease in ADPR levels in spleen (CD38 [3]; 30 mg/kg, 8 h treatment)
22%: decrease of plasma TNFα (CD38 [2]; [5])
58%: decrease of plasma TNFα (CD38 [2]; [6])
2 fold: increase of NAD+ levels in liver (CD38 [3]; 10 mg/kg, 8 hours post LPS challenge)
decrease: ADPR levels in liver (CD38 [3]; treatment arms, 4 hours post LPS challenge)
38%: decrease of NAM levels in liver (CD38 [3]; [8])
no significant changes: CD38 expression in spleen (CD38 [4]; spleen, after LPS challenge)
43%: decrease of plasma IL-6 (CD38 [2]; [5])
75%: decrease of plasma IL-6 (CD38 [2]; [6])
2.3 fold: increase of NAD+ levels in spleen (CD38 [3]; [8])
statistically significant decrease: plasma IP-10 (CD38 [2]; 4 hour post LPS challenge, 10 mg/kg and 30 mg/kg) | plasma IL-6 (CD38 [2]; [7]) | plasma IP-10 (CD38 [2]; [7]) | plasma TNFα (CD38 [2]; [7]) | CD38 expression in liver (CD38 [4]; liver, 10 mg/kg and 30 mg/kg, 8 hour post LPS challenge) | IFNγ expression levels in liver (CD38 [4]; liver, after LPS challenge) | IL-1β expression levels in liver (CD38 [4]; liver, after LPS challenge) | IL-6 expression levels in liver (CD38 [4]; liver, after LPS challenge) | IP-10 expression levels in liver (CD38 [4]; liver, after LPS challenge) | MCP1 expression levels in liver (CD38 [4]; liver, after LPS challenge) | MIP1α expression levels in liver (CD38 [4]; liver, after LPS challenge) | MIP2 expression levels in liver (CD38 [4]; liver, after LPS challenge) | RANTES expression levels in liver (CD38 [4]; liver, after LPS challenge) | TNFα expression levels in liver (CD38 [4]; liver, after LPS challenge) | IFNγ expression levels in spleen (CD38 [4]; spleen, after LPS challenge) | IL-1β expression levels in spleen (CD38 [4]; spleen, after LPS challenge) | IL-6 expression levels in spleen (CD38 [4]; spleen, after LPS challenge) | IP-10 expression levels in spleen (CD38 [4]; spleen, after LPS challenge) | MCP1 expression levels in spleen (CD38 [4]; spleen, after LPS challenge) | MIP1α expression levels in spleen (CD38 [4]; spleen, after LPS challenge) | MIP2 expression levels in spleen (CD38 [4]; spleen, after LPS challenge) | RANTES expression levels in spleen (CD38 [4]; spleen, after LPS challenge) | TNFα expression levels in spleen (CD38 [4]; spleen, after LPS challenge)
